Test results: paper PMC3071364, “Collagenolytic Activities of the Major Secreted Cathepsin L Peptidases Involved in the Virulence of the Helminth Pathogen, Fasciola hepatica” (PLoS Neglected Tropical Diseases, 2011)
pKi: −log10 of the molar value. Like-named read-outs stand apart in the source and are kept apart here. Where a SMILES comes first, the peptide text is derived from it. The star is where a group is joined. AMC = Cc1cc(=O)oc2cc(N*)ccc12; Tos = Cc1ccc(S(=O)(=O)*)cc1; Cbz = O=C(OCc1ccccc1)*; Boc = CC(C)(C)OC(=O)*

Experiments:
[1] = target: T1, FhCL2 (Fasciola hepatica, UniProt Q7JNQ8); assay: Hydrolysis of fluorogenic peptidyl-NHMec substrates by recombinant FhCL2; format: biochemical; details: FhCL2 compared to FhCL1
Protocol: (§1) Initial rates were obtained at 37°C over a range of substrate concentrations spanning Km values (0.2–200 µM) and at fixed enzyme concentrations (0.5–5 nM). Assays were performed in 100 mM sodium phosphate buffer (pH 6.0) containing 1 mM DTT and 1 mM EDTA. Rate constants for the inactivation of the Fasciola enzymes by Z-Phe-Ala-CHN2 and cathepsin K inhibitor II were determined from progress curves in the presence of substrate as previously described.

[2] = target: T2, FhCL3 (Fasciola hepatica, UniProt B3TM67); assay: Hydrolysis of fluorogenic peptidyl-NHMec substrates by recombinant FhCL3; format: biochemical; details: for kcat/Km fold increase over FhCL1 / kcat/Km fold lower than FhCL1: FhCL3 compared to FhCL1; for fold better cleavage efficiency of FhCL3 than FhCL2: FhCL3 compared to FhCL2
Protocol: as §1

[3] = target: T2, FhCL3; assay: Inactivation of recombinant FhCL3 by inhibitors (progress curves in presence of substrate); format: biochemical
Protocol: as §1

[4] = target: T3, FhCL1 (Fasciola hepatica, UniProt Q7JNQ9); assay: Inactivation of recombinant FhCL1 by inhibitors (progress curves in presence of substrate); format: biochemical; details: for pKi: FhCL1
T3 construct: His tag (inferred from Ni-NTA purification) (C); made in house; host or cells: Pichia pastoris
Protocol: as §1

[5] = target: T1, FhCL2; assay: Inactivation of recombinant FhCL2 by inhibitors (progress curves in presence of substrate); format: biochemical
Protocol: as §1

[6] = test system: Cc1cc(=O)oc2cc(NC(=O)[C@H](CCCNC(=N)N)NC(=O)[C@H](Cc3ccccc3)NC(=O)OCc3ccccc3)ccc12; assay: Hydrolysis of fluorogenic peptidyl-NHMec substrates by recombinant FhCL1; format: biochemical, Fasciola hepatica; details: other: FhCL1, pH 6.0, 37°C
Protocol: as §1

[7] = test system: Cc1cc(=O)oc2cc(NC(=O)[C@H](CCCCN)NC(=O)[C@H](CC(C)C)NC(=O)[C@@H](NC(=O)OC(C)(C)C)C(C)C)ccc12; assay: as above; format: biochemical, Fasciola hepatica; details: other: FhCL1, pH 6.0, 37°C
Protocol: as §1

[8] = test system: Cc1cc(=O)oc2cc(NC(=O)[C@H](CCCNC(=N)N)NC(=O)[C@@H](NC(=O)[C@@H](NC(=O)OCc3ccccc3)C(C)C)C(C)C)ccc12; assay: as above; format: biochemical, Fasciola hepatica; details: other: FhCL1, pH 6.0, 37°C
Protocol: as §1

[9] = test system: Cc1ccc(S(=O)(=O)NCC(=O)N2CCC[C@H]2C(=O)N[C@@H](CCCCN)C(=O)Nc2ccc3c(C)cc(=O)oc3c2)cc1; assay: as above; format: biochemical, Fasciola hepatica; details: other: FhCL1, pH 6.0, 37°C
Protocol: as §1

[10] = test system: Cc1ccc(S(=O)(=O)NCC(=O)N2CCC[C@H]2C(=O)N[C@@H](CCCNC(=N)N)C(=O)Nc2ccc3c(C)cc(=O)oc3c2)cc1; assay: as above; format: biochemical, Fasciola hepatica; details: other: FhCL1, pH 6.0, 37°C
Protocol: as §1

[11] = test system: Cc1cc(=O)oc2cc(NC(=O)[C@H](CCCNC(=N)N)NC(=O)[C@H](CC(C)C)NC(=O)OCc3ccccc3)ccc12; assay: as above; format: biochemical, Fasciola hepatica; details: other: FhCL1, pH 6.0, 37°C
Protocol: as §1

[12] = test system: Cc1cc(=O)oc2cc(NC(=O)[C@H](CCCNC(=N)N)NC(=O)[C@@H]3CCCN3C(=O)[C@@H](NC(=O)OC(C)(C)C)C(C)C)ccc12; assay: as above; format: biochemical, Fasciola hepatica; details: other: FhCL1, pH 6.0, 37°C
Protocol: as §1

[13] = test system: Cc1cc(=O)oc2cc(NC(=O)[C@H](CCCNC(=N)N)NC(=O)[C@@H]3CCCN3C(=O)CNC(=O)[C@H](C)NC(=O)OC(C)(C)C)ccc12; assay: as above; format: biochemical, Fasciola hepatica; details: other: FhCL1, pH 6.0, 37°C
Protocol: as §1

T2 sequence (B3TM67 entry or part of it): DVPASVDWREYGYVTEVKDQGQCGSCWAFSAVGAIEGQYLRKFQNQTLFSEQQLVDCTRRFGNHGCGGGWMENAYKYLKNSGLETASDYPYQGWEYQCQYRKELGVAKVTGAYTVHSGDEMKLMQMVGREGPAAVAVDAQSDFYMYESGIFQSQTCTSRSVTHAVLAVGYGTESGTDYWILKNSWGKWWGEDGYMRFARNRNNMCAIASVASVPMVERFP
T3 sequence (Q7JNQ9 entry or part of it): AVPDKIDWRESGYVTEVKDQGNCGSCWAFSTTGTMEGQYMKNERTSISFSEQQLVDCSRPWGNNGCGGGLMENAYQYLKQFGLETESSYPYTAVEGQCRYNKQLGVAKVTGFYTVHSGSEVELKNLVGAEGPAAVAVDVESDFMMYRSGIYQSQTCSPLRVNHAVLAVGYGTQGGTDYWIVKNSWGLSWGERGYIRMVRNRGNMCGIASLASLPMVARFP
T1 sequence (Q7JNQ8 entry or part of it): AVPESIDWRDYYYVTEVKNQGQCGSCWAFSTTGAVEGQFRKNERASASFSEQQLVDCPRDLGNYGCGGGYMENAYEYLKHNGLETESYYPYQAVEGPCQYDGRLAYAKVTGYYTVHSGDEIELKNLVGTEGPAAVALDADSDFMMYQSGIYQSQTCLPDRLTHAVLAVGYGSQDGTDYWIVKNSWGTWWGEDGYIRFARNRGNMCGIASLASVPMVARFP

Molecule: Cc1cc(=O)oc2cc(NC(=O)[C@H](CCCN=C(N)N)NC(=O)[C@@H]3CCCN3C(=O)CNC(=O)[C@H](C)NC(=O)OC(C)(C)C)ccc12 [Boc-AGPR-NHMec, Boc-Ala-Gly-Pro-Arg-NHMec] (Boc-AGPR-{AMC})
- kcat/Km fold increase over FhCL1 [1]: 86 fold
- kcat/Km fold increase over FhCL1 [2]: 90 fold

Molecule: Cc1cc(=O)oc2cc(NC(=O)[C@H](CCCN=C(N)N)NC(=O)[C@@H]3CCCN3C(=O)[C@@H](NC(=O)OC(C)(C)C)C(C)C)ccc12 [Boc-VPR-NHMec, Boc-Val-Pro-Arg-NHMec] (Boc-Val-Pro-Arg-{AMC})
- kcat/Km fold increase over FhCL1 [1]: 44 fold
- kcat/Km fold increase over FhCL1 [2]: 3 fold

Molecule: CC(C)C[C@H](NC(=O)OCc1ccccc1)C(=O)NNC(=O)NNC(=O)[C@H](CC(C)C)NC(=O)[C@H](Cc1ccccc1)NC(=O)OC(C)(C)C [Cathepsin K inhibitor II, Z-LNHNHCONHNHLF-Boc]
- fold less effective against FhCL3 compared to FhCL1 ([3]; FhCL3 vs FhCL1): 14 fold
- fold less effective against FhCL3 compared to FhCL2 ([3]; FhCL3 vs FhCL2): 20 fold
- pKi ([4]; Ki(app)): 7.91
- pKi ([4]; Ki): 9.20
- pKi [5]: 9.34
- pKi ([5]; read-out: Ki(app)): 8.32

Molecule: Cc1ccc(S(=O)(=O)NCC(=O)N2CCC[C@H]2C(=O)N[C@@H](CCCCN)C(=O)Nc2ccc3c(C)cc(=O)oc3c2)cc1 [Tos-GPK-NHMec, Tos-Gly-Pro-Lys-NHMec] (Tos-Gly-Pro-Lys-{AMC})
- kcat/Km fold increase over FhCL1 [1]: 22 fold
- kcat/Km fold increase over FhCL1 [2]: 60 fold
- fold better cleavage efficiency of FhCL3 than FhCL2 [2]: 3 fold

Molecule: Cc1ccc(S(=O)(=O)NCC(=O)N2CCC[C@H]2C(=O)N[C@@H](CCCN=C(N)N)C(=O)Nc2ccc3c(C)cc(=O)oc3c2)cc1 [Tos-GPR-NHMec, Tos-Gly-Pro-Arg-NHMec] (Tos-Gly-Pro-Arg-{AMC})
- kcat/Km fold increase over FhCL1 [1]: 28 fold
- kcat/Km fold increase over FhCL1 [2]: 142 fold
- fold better cleavage efficiency of FhCL3 than FhCL2 [2]: 5 fold

Molecule: Cc1cc(=O)oc2cc(NC(=O)[C@H](CCCN=C(N)N)NC(=O)[C@H](Cc3ccccc3)NC(=O)OCc3ccccc3)ccc12 [Z-FR-NHMec, Z-Phe-Arg-NHMec] (Cbz-Phe-Arg-{AMC})
- kcat/Km fold lower than FhCL1 [1]: 6 fold
- kcat/Km fold lower than FhCL1 [2]: 65 fold

Molecule: Cc1cc(=O)oc2cc(NC(=O)[C@H](CCCN=C(N)N)NC(=O)[C@H](CC(C)C)NC(=O)OCc3ccccc3)ccc12 [Z-LR-NHMec, Z-Leu-Arg-NHMec]
- kcat/Km fold lower than FhCL1 [1]: 3.5 fold
- kcat/Km fold lower than FhCL1 [2]: 66 fold

Molecule: C[C@H](NC(=O)[C@H](Cc1ccccc1)NC(=O)OCc1ccccc1)C(=O)C=[N+]=[N-] [Z-Phe-Ala-CHN2]
- rate of inactivation of FhCL3, fold lower ([3]; FhCL3 in contrast to FhCL1 and FhCL2): 20 fold
- rate of inactivation of FhCL1, fold higher than that of FhCL2 ([4]; FhCL1 compared to FhCL2): ~2 fold
- pKi ([4]; Ki(app)): 7.50
- pKi ([4]; Ki): 8.79
- pKi [5]: 8.27
- pKi ([5]; read-out: Ki(app)): 7.26

Molecule: FhCL1 (Fasciola hepatica)
- Km [6]: 1.9 µM
- kcat [6]: 0.12 s⁻¹
- kcat/Km [6]: 64900 M⁻¹ s⁻¹
- Km [7]: 2.5 µM
- kcat [7]: 0.14 s⁻¹
- kcat/Km [7]: 54300 M⁻¹ s⁻¹
- Km [8]: 2.84 µM
- kcat [8]: 0.021 s⁻¹
- kcat/Km [8]: 7460 M⁻¹ s⁻¹
- Km [9]: 17.42 µM
- kcat [9]: 0.01 s⁻¹
- kcat/Km [9]: 612 M⁻¹ s⁻¹
- Km [10]: 27.2 µM
- kcat [10]: 0.02 s⁻¹
- kcat/Km [10]: 672 M⁻¹ s⁻¹
- Km [11]: 1.09 µM
- kcat [11]: 1.63 s⁻¹
- kcat/Km [11]: 1.49e+06 M⁻¹ s⁻¹
- Km [12]: 22 µM
- kcat [12]: 0.01 s⁻¹
- kcat/Km [12]: 479 M⁻¹ s⁻¹
- Km [13]: 18.8 µM
- kcat [13]: 0.01 s⁻¹
- kcat/Km [13]: 674 M⁻¹ s⁻¹
